Molecules are shown by their SMILES.

We go through 18 compounds from patent US4207343A, “1-Phenyl-3-(substituted phenoxy)propylamines” (priority 1978, dated 1980).

Experiment [1] relates to norepinephrine uptake by synaptosomes from rat brain. The experiment can be described thus: Blockage of norepinephrine uptake in vitro by synaptosomes from rat brain (Table 1). It counts as biochemical. Particulars: norepinephrine 0.48 μuM, read-out: IC50 Norepinephrine (concentration that blocks uptake by 50 percent). The text has this:
(§1) This blockade is shown both in vitro using radioactive labelled compounds to determine the amount of monoamine uptake by synaptosomes from rat brain, and in vivo by a variety of methods using the procedure of Wong and Bymaster, Biochem. Pharmacol., 25, 1978 (1976). Among the physiologically active monoamines whose uptake is blocked by the compounds of this invention are included serotonin, norepinephrine and dopamine (3,4-dihydroxyphenylethylamine). […] Table 1 which follows sets forth the results of some of the in vitro determinations of the blockage of monoamine uptake by the compounds of this invention. In the table, column 1 gives the R substituent on the 1-phenylpropylamine, colums 2 and 3, the R^1 and R^2 substituents on the amine nitrogen and columns […], the concentration in micrograms per ml. that blocks the uptake of a particular amine by 50 percent (IC50) for the amines, serotonin and norephinephrine. At the head of each column is given the concentration of the particular monoamine used in the experiment.

Experiment [2] relates to serotonin uptake by synaptosomes from rat brain. The experiment is described as follows: Blockage of serotonin uptake in vitro by synaptosomes from rat brain (Table 1). Particulars: serotonin 0.1 μuM, read-out: IC50 Serotonin (concentration that blocks uptake by 50 percent). In kind it is biochemical.
Text: as §1

Experiment [3] relates to norepinephrine uptake. The experiment can be described thus: In vivo decrease in norepinephrine uptake after intraperitoneal injection. Particulars: 100 mg./kg level, hydrochloride salt. The procedure:
(§2) There was also a decrease in norepinephrine uptake at a 100 mg./kg level but the reduction was less than 50% at this high dose level.

The target of experiment [4] is T1, uptake of norepinephrine (Rattus norvegicus, UniProt Q63380).
T1 construct: from tissue; host or cells: synaptosomes of Sprague-Dawley rat brain (cortex, by 'similar experiment')
T1 sequence (Q63380 1-617): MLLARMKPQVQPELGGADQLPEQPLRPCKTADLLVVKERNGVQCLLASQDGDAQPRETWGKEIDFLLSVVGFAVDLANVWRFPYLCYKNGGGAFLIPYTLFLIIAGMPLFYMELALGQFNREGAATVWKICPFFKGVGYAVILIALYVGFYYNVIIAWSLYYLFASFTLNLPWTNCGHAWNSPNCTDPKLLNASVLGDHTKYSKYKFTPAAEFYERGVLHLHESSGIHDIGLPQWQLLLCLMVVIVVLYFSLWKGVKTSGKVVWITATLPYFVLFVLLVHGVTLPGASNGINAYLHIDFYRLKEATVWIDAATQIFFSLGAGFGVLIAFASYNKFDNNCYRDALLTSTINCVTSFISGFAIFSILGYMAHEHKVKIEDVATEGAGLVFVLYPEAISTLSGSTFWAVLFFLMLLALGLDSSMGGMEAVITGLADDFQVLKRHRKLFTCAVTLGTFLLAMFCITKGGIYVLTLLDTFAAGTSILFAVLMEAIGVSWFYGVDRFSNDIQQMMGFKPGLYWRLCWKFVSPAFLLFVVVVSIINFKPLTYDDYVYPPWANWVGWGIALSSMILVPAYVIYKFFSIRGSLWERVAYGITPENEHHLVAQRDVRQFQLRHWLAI
The experiment can be described thus: Inhibition of norepinephrine uptake in synaptosomes, kinetics. It counts as biochemical, Sprague-Dawley rats.
Procedure: (§3) The uptake of serotonin in cortical synaptosomes and in platelets of human plasma in the presence of this compound were studied. Corticosynaptosomes were prepared as follows: Sprague-Dawley rats weighing about 150 g. were decapitated and their brains immediately removed and dissected. Crude synaptosomes were prepared from a 10 percent homogenate in 0.32 M scurose and in 10 μM glucose by differential centrifugation according to the procedure of Wong and Bymaster (loc. cit.).

In experiment [5] the test system is uptake of serotonin by platelets. Particulars: human platelet-rich plasma; estimated value.
Procedure: A study of the uptake of serotonin from platelets was carried out as follows: platelet-rich plasma from human volunteers was prepared according to the method of Sneddon, Brit. […] The platelet uptake of serotonin was determined by the procedure of Horng and Wong, Biochem. Pharmacol., 25, 865 (1976).
Experiment [6] relates to uptake of physiologically active monoamines. The experiment can be described thus: Blocking of uptake of physiologically active monoamines (serotonin, norepinephrine, dopamine). Particulars: in vitro and in vivo.
Text: as §1

For experiment [7], the target named is uptake of serotonin in cortical synaptosomes (Rattus norvegicus, UniProt P31652). The experiment can be described thus: Inhibition of serotonin uptake in cortical synaptosomes, kinetics. In kind it is biochemical, Sprague-Dawley rats.
uptake of serotonin in cortical synaptosomes, sequence (P31652 whole entry): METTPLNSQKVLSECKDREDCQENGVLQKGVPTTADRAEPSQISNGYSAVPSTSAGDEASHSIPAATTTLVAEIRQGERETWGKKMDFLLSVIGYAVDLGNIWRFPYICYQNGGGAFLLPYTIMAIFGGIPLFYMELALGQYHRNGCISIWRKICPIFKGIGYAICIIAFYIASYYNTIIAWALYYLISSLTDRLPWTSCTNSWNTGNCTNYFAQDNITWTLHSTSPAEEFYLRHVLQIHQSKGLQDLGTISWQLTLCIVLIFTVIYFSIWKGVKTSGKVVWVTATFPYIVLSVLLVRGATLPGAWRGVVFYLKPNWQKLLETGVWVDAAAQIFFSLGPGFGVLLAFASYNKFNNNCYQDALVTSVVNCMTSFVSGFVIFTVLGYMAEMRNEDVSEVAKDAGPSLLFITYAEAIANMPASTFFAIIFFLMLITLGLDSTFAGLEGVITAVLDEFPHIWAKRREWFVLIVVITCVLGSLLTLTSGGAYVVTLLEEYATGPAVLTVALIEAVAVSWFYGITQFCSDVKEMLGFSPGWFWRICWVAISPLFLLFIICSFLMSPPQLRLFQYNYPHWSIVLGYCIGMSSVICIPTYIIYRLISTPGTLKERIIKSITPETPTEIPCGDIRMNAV
Procedure: as §3
The target in experiment [8] is dopamine uptake from synaptosomes isolated from corpus striatum (Rattus norvegicus, UniProt P23977). The experiment is described as follows: Inhibition of dopamine uptake in synaptosomes isolated from corpus striatum.
dopamine uptake from synaptosomes isolated from corpus striatum, sequence (P23977 whole entry): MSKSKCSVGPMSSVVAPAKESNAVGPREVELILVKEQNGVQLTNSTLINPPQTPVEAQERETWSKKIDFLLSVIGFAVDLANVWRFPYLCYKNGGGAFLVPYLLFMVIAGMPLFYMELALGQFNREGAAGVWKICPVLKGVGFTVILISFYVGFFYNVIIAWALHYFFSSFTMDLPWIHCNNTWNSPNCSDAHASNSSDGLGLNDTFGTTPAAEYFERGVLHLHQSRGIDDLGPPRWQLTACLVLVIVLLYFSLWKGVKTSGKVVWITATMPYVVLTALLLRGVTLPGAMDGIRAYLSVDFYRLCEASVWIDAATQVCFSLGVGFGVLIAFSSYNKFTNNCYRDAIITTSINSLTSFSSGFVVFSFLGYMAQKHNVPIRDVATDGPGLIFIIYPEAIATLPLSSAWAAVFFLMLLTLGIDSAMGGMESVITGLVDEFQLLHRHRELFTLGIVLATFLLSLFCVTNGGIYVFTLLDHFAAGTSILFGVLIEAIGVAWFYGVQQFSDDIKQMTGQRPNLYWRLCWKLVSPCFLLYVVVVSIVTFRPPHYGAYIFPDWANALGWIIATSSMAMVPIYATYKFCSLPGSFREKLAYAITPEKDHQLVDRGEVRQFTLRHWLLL
Experiment [9] deals with serotonin uptake versus norepinephrine uptake. The experiment is described as follows: Relative effectiveness in inhibiting serotonin versus norepinephrine uptake.
Experiment [10] relates to uptake of serotonin by hypothalamic synaptosomes. The experiment can be described thus: In vivo inhibition of serotonin uptake by hypothalamic synaptosomes after intraperitoneal injection. Particulars: ip, as hydrochloride salt, read-out: calculated ED50 (effective dose), inhibition of serotonin uptake by hypothalamic synaptosomes. The protocol:
as §2

The subject of experiment [11] is chronic undifferentiated schizophrenic patients. Particulars: oral administration, cited from earlier work.

Turning to `NC(CCOc1ccccc1)c1ccccc1` (stereo not shown) [phenyl, H, H, 1-Phenyl-3-phenoxypropylamine], the IC50 is 0.56 µM in experiment [1] and 5.6 µM in [2].
On the same counts, the results for `COc1ccc(OCCC(N)c2ccccc2)cc1` (stereo not shown) [p-anisyl, H, H, 3-(p-anisyloxy)-1-phenylpropylamine] are 7 µM and 0.35 µM.
The corresponding values for `COc1cccc(OCCC(N)c2ccccc2)c1` (stereo not shown) [m-anisyl, H, H, 1-Phenyl-3-(m-anisyloxy)propylamine] are 3 µM and 2 µM.
On the same counts, the results for `Cc1cccc(OCCC(c2ccccc2)N(C)C)c1` (stereo not shown) [m-tolyl, CH3, CH3] are 5.1 µM and 0.08 µM.
On to `COc1ccccc1OCCC(N)c1ccccc1` (stereo not shown) [o-anisyl, H, H, 1-phenyl-3-(o-anisyloxy)propylamine], for which the values for the IC50 in [1] and in experiment [2] were 1.4 µM and 4.3 µM, respectively.
As for `CN(C)C(CCOc1ccccc1)c1ccccc1` (stereo not shown) [phenyl, CH3, CH3, N,N-dimethyl 1-phenyl-3-phenoxypropylamine], the figures for the IC50 in [1] and in experiment [2] were 0.7 µM and 1 µM, respectively.
The term Ki denotes the equilibrium dissociation constant of an inhibitor or competing ligand from its target. By ED50 is commonly meant the dose that gives a 50% effect, or the effect in half of the subjects. As to `Cc1ccc(OCCC(c2ccccc2)N(C)C)cc1` (stereo not shown), the “reduction in norepinephrine uptake” value in experiment [3] is “less than 50%”. Further, the IC50 was found to be 5 µM in experiment [1] and 0.08 µM in experiment [2]. Moreover, in experiment [4], the “mode of inhibition of norepinephrine uptake” value is on record as “competitively inhibited the uptake of norepinephrine”. In addition, the Ki in [4] (synaptosomes, competitive, read-out: inhibitory constant KI, norepinephrine uptake) came to 2.2 µM; in experiment [7] (cortical synaptosomes, compound at 0.01, 0.05 and 0.1 μM, competitive, read-out: inhibitor constant KI, serotonin uptake), 0.06 µM; in experiment [8], 2.5 µM. For the same compound, the “estimated IC50, serotonin uptake by platelets” value in experiment [5] is 14 nmol. For the same compound, the “block of uptake of monoamines (in words)” value in experiment [6] is on record as “particularly active in inhibiting the uptake of biogenic amines”. In experiment [7] (0.01, 0.05 and 0.1 μM), the “mode of inhibition of serotonin uptake” value was “competitively inhibited uptake of serotonin”. Moreover, the “relative effectiveness, serotonin versus norepinephrine uptake (in words)” value in experiment [9] is “far more effective in inhibiting serotonin uptake than in inhibiting norepinephrine uptake”. The ED50 in [10] was 12 mg/kg.
In the case of `N[C@@H](Cc1c[nH]c2ccc(O)cc12)C(=O)O` [l-5-hydroxytryptophane], the “number of schizophrenic patients improved, of 7” value in experiment [11] (6 of 7 patients) was 6 patients. The “improvement in schizophrenic patients (in words)” value in experiment [11] is given as “mild to moderate improvement”.
For `Cc1ccc(OCCC(N)c2ccccc2)cc1` (stereo not shown) [p-tolyl, H, H], the IC50 in experiment [1] is 2.1 µM; in experiment [2], 0.4 µM.
Regarding `CNC(CCOc1ccccc1OC)c1ccccc1` (stereo not shown) [o-anisyl, CH3, H, N-methyl 1-phenyl-3-(o-anisyloxy)propylamine], the IC50 in experiment [1] and in experiment [2] was 0.5 µM throughout.
Turning to `CN(C)C(CCOc1ccc(C(F)(F)F)cc1)c1ccccc1` (stereo not shown) [p-trifluoromethylphenyl, CH3, CH3, N,N-dimethyl 1-phenyl-3-(p-trifluoromethylphenoxy)-propylamine], the values for the IC50 in [1] and in experiment [2] were 10 µM and 0.21 µM, respectively.
On the same counts, the results for `COc1ccc(OCCC(c2ccccc2)N(C)C)cc1` (stereo not shown) [p-anisyl, CH3, CH3, N,N-dimethyl 3-(p-anisyloxy)-1-phenylpropylamine] are 5.1 µM and 0.28 µM.
`COc1ccccc1OCCC(c1ccccc1)N(C)C` (stereo not shown) [o-anisyl, CH3, CH3, N,N-dimethyl 3-(o-anisyloxy)-1-phenylpropylamine]: the IC50 in experiment [1] worked out at 0.3 µM; in experiment [2] it was 0.1 µM.
The corresponding values for `CNC(CCOc1ccc(C(F)(F)F)cc1)c1ccccc1` (stereo not shown) [p-trifluoromethylphenyl, CH3, H, N-methyl 1-phenyl-3-(p-trifluoromethylphenoxy)-propylamine] are 10 µM and 0.21 µM.
On the same counts, the results for `Cc1ccccc1OCCC(N)c1ccccc1` (stereo not shown) [o-tolyl, H, H, 3-(o-cresol)-1-phenylpropylamine] are 4.6 µM and 0.35 µM.
The corresponding values for `Cc1cccc(OCCC(N)c2ccccc2)c1` (stereo not shown) [m-tolyl, H, H] are 5.7 µM and 1.4 µM.
For the compound `NC(CCOc1ccc(C(F)(F)F)cc1)c1ccccc1` (stereo not shown) [p-trifluoromethylphenyl, H, H, 1-phenyl-3-(p-trifluoromethylphenoxy)propylamine], the values for the IC50 in [1] and in [2] were 10 µM and 0.32 µM, respectively.
As for `CNC(CCOc1ccccc1)c1ccccc1` (stereo not shown) [phenyl, CH3, H, N-methyl 3-phenoxy-1-phenylpropylamine], the IC50 came to 0.36 µM in experiment [1] and 1 µM in experiment [2].
